According to publication PMC6225339 (Journal of the American Chemical Society, 2018):
Structures can show the parent of a compound that is named as a salt.

Legend:
H9C2 cardiomyocytes [1] = assay type: cell-based, rat
H9C2 cardiomyocytes [2] = conditions: Dox only, 24 h, CCK-8

N[C@@H](CS)C(=O)O [Cys, cysteine]
protection of H9C2 viability against Dox (control studies) (H9C2 cardiomyocytes [1]): no protective effect

COc1cccc2c1C(=O)c1c(O)c3c(c(O)c1C2=O)C[C@@](O)(C(=O)CO)C[C@@H]3O[C@H]1C[C@H](N)[C@H](O)[C@H](C)O1 [Dox, Doxorubicin hydrochloride]
concentration inducing cytotoxicity in H9C2 cardiomyocytes (H9C2 cardiomyocytes [2]): ≥ 2500 nM

C1COCCN1.COc1ccc(P(=S)(S)N2CCOCC2)cc1 (stereo not drawn) [GYY4137]
protection of H9C2 viability against Dox (control studies) (H9C2 cardiomyocytes [1]): no effect on viability
